From ChEMBL document CHEMBL1201862, “PubChem BioAssay data set” (2004)
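Cells were grown in 96-well plates and exposed to each compound for 48 hours at five concentrations; endpoints were interpolated linearly between bracketing concentrations, or set to the highest concentration if not reached. GI50 is the concentration that inhibits growth by half.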 Activity calls are given as the source filed them. Rule as the data show it: active = GI50 up to about 1.1 µM and inactive = higher.

Tests used:
Test in all cases: NCI-60 cell line screen, 48 h
[1] = test system: CCRF-CEM
[2] = test system: HCC 2998
[3] = test system: Hs-578T
[4] = test system: MCF7
[5] = test system: MDA-N
[6] = test system: Malme-3M
[7] = test system: NCI-H226
[8] = test system: NCI/ADR-RES
[9] = test system: OVCAR-3
[10] = test system: PC-3
[11] = test system: RXF 393
[12] = test system: SF-539
[13] = test system: SK-MEL-28
[14] = test system: SK-MEL-5
[15] = test system: SK-OV-3
[16] = test system: SR
[17] = test system: T47D
[18] = test system: TK-10
[19] = test system: UO-31
[20] = test system: HL-60

Measured: GI50

CC1=NOC(=O)/C1=C/c1ccc2c(c1)OCO2
inactive: [1] 20.7 µM | [2] 28.9 µM | [3] 39.5 µM | [4] 30.2 µM | [5] 32.3 µM | [6] 43.6 µM | [7] 21.6 µM | [8] 39.5 µM | [9] 30.2 µM | [10] 21 µM | [11] 16 µM | [12] 24.3 µM | [13] 30.8 µM | [14] 34.1 µM | [15] > 100 µM | [16] 15.9 µM | [17] > 100 µM | [18] 39.2 µM | [19] 21.1 µM

C=O.NNCCc1n[nH]c(=O)n1N
inactive: [1] > 100 µM | [2] > 100 µM | [20] > 100 µM | [3] > 100 µM | [4] > 100 µM | [5] > 100 µM | [6] > 100 µM | [7] > 100 µM | [8] > 100 µM | [9] > 100 µM | [10] > 100 µM | [11] > 100 µM | [12] > 100 µM | [13] > 100 µM | [14] > 100 µM | [15] > 100 µM | [16] > 100 µM | [17] > 100 µM | [19] > 100 µM

C/C=C/OC1C(C2COC(C)(C)O2)OC2OC(C)(C)OC21 (centres undefined)
inactive: [1] > 100 µM | [2] > 100 µM | [20] > 100 µM | [3] > 100 µM | [4] > 100 µM | [5] > 100 µM | [6] > 100 µM | [8] > 100 µM | [9] > 100 µM | [10] > 100 µM | [11] > 100 µM | [12] > 100 µM | [13] > 100 µM | [14] > 100 µM | [15] > 100 µM | [16] > 100 µM | [17] > 100 µM | [18] > 100 µM | [19] > 100 µM

C/C(=N/Nc1nc(C)cc(O)n1)C(=O)O
inactive: [1] > 100 µM | [2] > 100 µM | [20] > 100 µM | [3] > 100 µM | [4] > 100 µM | [5] > 100 µM | [6] > 100 µM | [7] > 100 µM | [8] > 100 µM | [9] > 100 µM | [10] > 100 µM | [11] > 100 µM | [13] > 100 µM | [14] > 100 µM | [15] > 100 µM | [16] > 100 µM | [17] > 100 µM | [18] > 100 µM | [19] > 100 µM

Clc1ccc(/C=N/C23CC4CC(CC(C4)C2)C3)cc1Cl
inactive: [1] > 10 µM | [2] > 10 µM | [20] > 10 µM | [3] > 10 µM | [4] > 10 µM | [5] > 10 µM | [6] > 10 µM | [7] > 10 µM | [8] > 10 µM | [9] > 10 µM | [10] > 10 µM | [11] > 10 µM | [12] > 10 µM | [13] > 10 µM | [14] > 10 µM | [15] > 10 µM | [16] > 10 µM | [17] > 10 µM | [18] > 10 µM

CC(C)(C)OC(=O)N1C(C2=COc3ccccc3O2)=COc2cccnc21
inactive: [2] 1.69 µM | [20] 1.8 µM | [3] 3.64 µM | [4] 1.66 µM | [5] 1.99 µM | [6] 1.45 µM | [7] 1.71 µM | [8] 2 µM | [9] 1.72 µM | [10] 1.96 µM | [11] 1.62 µM | [12] 2 µM | [13] 1.74 µM | [14] 1.75 µM | [15] 1.81 µM | [16] 2.18 µM | [17] 1.42 µM | [18] 2.75 µM | [19] 1.64 µM

CC1(C)N=c2c(ncn2CCO)=C(C(N)=O)N1
inactive: [1] > 100 µM | [2] > 100 µM | [20] > 100 µM | [3] > 100 µM | [4] > 100 µM | [5] > 100 µM | [6] > 100 µM | [7] > 100 µM | [8] > 100 µM | [9] > 100 µM | [10] > 100 µM | [11] > 100 µM | [12] > 100 µM | [13] > 100 µM | [14] > 100 µM | [15] > 100 µM | [16] > 100 µM | [17] > 100 µM | [18] > 100 µM

O=C(O)c1ccccc1C(=O)OCC1CCCN2CCCCC12 (centres undefined)
inactive: [1] > 100 µM | [2] > 100 µM | [3] > 100 µM | [4] > 100 µM | [5] > 100 µM | [6] > 100 µM | [7] > 100 µM | [8] > 100 µM | [9] > 100 µM | [10] > 100 µM | [11] > 100 µM | [12] > 100 µM | [13] > 100 µM | [14] > 100 µM | [15] > 100 µM | [16] > 100 µM | [17] > 100 µM | [18] > 100 µM | [19] > 100 µM

CN1CC=C(c2c(N)nc(N)[nH]c2=O)CC1
inactive: [1] > 100 µM | [20] > 100 µM | [3] > 100 µM | [4] > 100 µM | [5] > 100 µM | [6] 80.2 µM | [7] > 100 µM | [8] > 100 µM | [9] > 100 µM | [10] > 100 µM | [11] > 100 µM | [12] > 100 µM | [13] > 100 µM | [14] > 100 µM | [15] > 100 µM | [16] > 100 µM | [17] > 100 µM | [19] > 100 µM

Cc1ccc(S(=O)(=O)NNC(=O)Nc2cccc(C(F)(F)F)c2)cc1
inactive: [1] 96.2 µM | [2] > 100 µM | [20] > 100 µM | [3] > 100 µM | [4] 97.1 µM | [5] > 100 µM | [6] > 100 µM | [7] 44.7 µM | [8] 61.8 µM | [10] 36.4 µM | [11] 85.7 µM | [12] > 100 µM | [13] > 100 µM | [14] 33.3 µM | [15] > 100 µM | [16] > 100 µM | [17] > 100 µM | [18] > 100 µM | [19] 99.1 µM
